The term GI50 denotes the concentration at which growth is held to half of that of the control. Higher therefore signals lower sensitivity of the cells.

The test system of series [1] is Giardia trophozoites (BAH2c2). Description: Proliferation of Giardia trophozoites (resazurin, 96 h). The format is cell-based, Giardia duodenalis. As to conditions: BAH2c2, 1000 trophozoites per well, read-out: IC50prol, Assemblage A (50% inhibition in the proliferation assay). As to the method:
The effect of the compounds on the proliferation of Giardia trophozoites was determined following the protocol outlined above, with the following modifications. The number of trophozoites was decreased to 1000 per well and the cells were incubated in the presence of each compound for 96 h at 37 °C.
(§1) The IC50 of each compound was determined using a resazurin reduction assay, which measures the metabolic activity of cells, using the log (inhibitor) vs. normalised response – variable slope function in Graphpad Prism. The compounds were tested against an assemblage A (BAH2c2, 24 h) and an assemblage B (BAH12, 24 h) isolate (Table 1). […] The effect of the compounds on the proliferation of Giardia trophozoites (BAH2c2) was also determined.
For orientation: Resazurin is reduced to fluorescent resorufin, in cell work by metabolically active cells.

For series [2], the system named is Giardia duodenalis BAH12, assemblage B. The series is described as follows: Resazurin reduction assay, assemblage B isolate. The format is cell-based. As to conditions: BAH12, 24 h. As to the method: (§2) G. duodenalis (BAH2c2 and BAH12 strain) was cultivated according to the method of Clark and Diamond in Keister's modified TYI-S-33 medium, supplemented with heat inactivated foetal bovine serum (Hyclone™, Thermo Fisher Scientific, Scoresby, Victoria, Australia) at 37 °C in plastic 9 mL screw-capped test tubes (nunc, Thermo Fisher Scientific, Scoresby, Victoria, Australia). Subcultures were performed once a confluent monolayer was observed, approximately 2–3 times per week ([Clark and Diamond, 2002]).
(§3) The in-vitro compound efficacy was determined using a resazurin reduction assay as previously described ([Benere et al., 2007]). The media of confluent cultures was replaced with fresh media and the cultures were placed on ice for 40 min to detach trophozoites. Trophozoites were enumerated using a haemocytometer and 50 000 trophozoites were added to each test well of a 96 well plate. Doubling or tripling dilutions of the test compounds were added to wells beginning at 25 or 50 μM compound concentration (previously prepared in DMSO). Metronidazole and DMSO (vehicle only) were used as controls. Plates were incubated under anaerobic conditions, using anaerobic gas generating sachets, (AnaeroGen, Thermo Fisher Scientific, Scoresby, Victoria, Australia) for 24 h at 37 °C. After incubation the media was removed and replaced with an equal volume of warm PBS. Resazurin (Alamarblue, Thermo Fisher Scientific, Scoresby, Victoria, Australia) was then added at 10% of the total volume of the wells. Plates were further incubated (1.5 h) for colour development and absorbance read at 570 nm and 630 nm. The percentage resazurin reduction was then calculated using the following formula:((εoxi630 x A570) – (εoxi570 x A630))/((εred570 x C630)-([…])) x 100Where: εoxi630 = 34798, εoxi570 = 80586, A570 = absorbance at 570 nm, A630 = absorbance at 630 nm, εred570 = 155677, εred630 = 5494, C630 = absorbance of negative control well at 630 nm and C570 = absorbance of negative control well at 570 nm.
(§4) For the resazurin reduction assay the mean and standard error of the mean were determined with each assay completed in triplicate. The IC50 was calculated using the log (inhibitor) vs. normalised response – variable slope function in Graphpad Prism. For the adherence assay mean and standard error of the mean were calculated and data analysed using an unpaired t-test, relative to untreated control.
as §1

In the next series the test system is bacteria. The series is described as follows: Off-target antibacterial effects. The format is cell-based.
Series [3] is described as follows: In vitro cytotoxicity (WST-1), human lung fibroblast. The format is cell-based. To be noted: HEL 299 human lung fibroblast cells, 24 h exposure. As to the method: Cells were passaged every 3 days. Assays were performed in 96 well plates in duplicate. Wells were seeded with 50 000 cells.
On the technique in general: Tetrazolium dyes change colour on reduction, which living cells bring about.

The nature of series [4]: In vitro cytotoxicity, murine macrophage cells. As to conditions: mouse.
The subject of the next series is Giardia trophozoites. Description: Morphology of stained trophozoites at 100x magnification. The format is cell-based, Giardia duodenalis. As to conditions: at IC50, 100 x magnification. As to the method:
A second screening method, based on counting adherent trophozoites, was developed and used to validate the primary screen method, modified from earlier adherence assay protocols ([Crouch et al., 1986]). The assay was prepared in 24 well plates with plastic coverslips placed in the bottom. Trophozoites were prepared as above by placing on ice and ∼5 × 10^5 cells/mL were added to each well. Drugs prepared in DMSO were added at the required concentration, with the DMSO concentration never exceeding 1%. Assay plates were incubated for 5 h at 37 °C under anaerobic conditions, the media removed and cells adhering to the coverslips were fixed with glutaraldehyde or methanol. Once the coverslips were dry, cells were stained with a Romanowsky stain variant (Rapid stain), fixed to a glass slide and imaged at 10x or 100x magnification. Images (10x magnification) were processed with DotCount v1.2 software (http://reuter.mit.edu/, 2008–2012 ^© Martin Reuter) to count the number of cells present and data analysed using GraphPad Prism version 6.00 for Windows, GraphPad Software, La Jolla California USA, www.graphpad.com. Images (100x magnification) were assessed for obvious morphological changes.
Fig. 4 Morphological effect of Robenidine and NCL 099 on Giardia trophozoites. Giardia trophozoites were exposed to each compound for 24 h before fixation with glutaraldehyde and staining following the Diff quik protocol. A-control cells, B – cells treated with metronidazole (IC50, 2 μM), C- robendine treated cells (IC50, 2 μM), D – NCL 099 treated cells (IC50, 3 μM), E − NCL 099 treated cells (2 x IC50).

In series [5] the test system is Giardia duodenalis BAH2c2 strain, assemblage A. The series is described as follows: Resazurin reduction assay, assemblage A isolate. As to conditions: BAH2c2, 24 h; for IC50: resazurin metabolic assay, read-out: IC50, Assemblage A. The format is cell-based. As to the method: as §2, §3, §4, §1
Absorbance was measured (630 and 570 nm), percent reduction of resazurin calculated and data presented as a percentage of the growth control. Treatment groups are: square - metronidazole; triangle –NCL 099; diamond - robenidine; and circle - NCL 062. Error ± SEM, n = 3. Data represents a typical experiment. Note the break in the x-axis indicates a change in the scale of drug concentration.

Series [6] relates to G. duodenalis trophozoites. The series is described as follows: Giardia recovery assay. The format is cell-based, Giardia duodenalis. As to conditions: 5 h at 5x the IC50, counts at 24 and 48 h post exposure. As to the method: G. duodenalis trophozoites were harvested on ice as outlined above and 5 × 10^5 cells/mL were added to 1.5 mL centrifuge tubes. […] After exposure cells were collected by placing tubes on ice for 40 min followed by centrifugation at 900×g for 5 min. The supernatant was removed and cells were resuspended in 8 mL of fresh media (in a 9 mL culture tube). The number of trophozoites was counted using a haemocytometer and cells were incubated for 48 h with cell numbers being determined at 24 and 48 h.
Fig. 7 Recovery assay of Giardia duodenalis exposed to robenidine and metronidazole. Giardia trophozoites were exposed to robenidine or metronidazole for 5 h at 5x the IC50. Key: closed circle – growth control, triangle – metronidazole, square – robenidine, open circle – NCL 062, diamond – NCL 099. Cell numbers were determined at 24 and 48 h post exposure. Error ± SD.

Values after ≈ are worked out from the molar mass of the structure shown. “Also recorded” adds a separate entry of the source. Read-outs that look alike come from different tables or passages of the source.

For `N=C(N/N=C/c1ccc(Cl)cc1)N/N=C/c1ccc(Cl)cc1` [Robenidine, robenidine], the IC50 in series [1] was determined as 1.2 ± 0.7 µM; in series [2] (Giardia duodenalis, resazurin metabolic assay), 4.7 ± 0.6 µM; in series [5], 2.9 ± 2.9 µM; in series [5] (Giardia duodenalis, 24 h), 2 µM. Also, the “MLC, Assemblage B” value in series [2] amounted to 16.6 µM (≈ 5.55 µg/mL). For the same compound, the Off-target antibacterial effects entry in the series on bacteria was “off-target antibacterial effects”. Moreover, in series [3], the concentration for 50% growth inhibition (GI50) at 24 h is 17.7 µM. This compound came in with a GI50 in series [4] of 17.1 µM. The “Morphological effect on stained trophozoites at the IC50” value with Giardia trophozoites is listed as “decrease in the intensity of the membrane stain; also recorded: enlarged nuclei”. Besides, the “MLC (minimum lethal concentration), Assemblage A” value in series [5] (concentration at which no metabolism of resazurin was observed) lay in the range of 2.8 to 8.3 µM. Further, the “Recovery of trophozoites after short-term exposure” value in series [6] is “unable to recover”.

Values taken from PMC6479099, “Aminoguanidines: New leads for treatment of Giardia duodenalis infection” (International Journal for Parasitology: Drugs and Drug …, 2019).
